Test [1] deals with croton oil-induced ear swelling. Kind of test: croton oil-induced ear swelling (Example 4). It is filed as in vivo, ICR-HSD mice. The conditions noted are these: Aspirin 100 μg, topical, 6 h. The method, then: Four groups (10 mice per group) of adult male ICR-HSD mice was given topically 25 μg/per 10 μl croton oil solutions. This irritant was applied to the inner surface of the animal's right ear, and the left ear was not treated and used as a control. One-half hour after the application of the croton oil irritant, solutions were added topically to reduce inflammation; the solutions were 1% aspirin, 2% Aloe and a solution that had both aspirin and aloe.
Six hours after the topical application of croton oil solutions, a 6 mm biopsy punch specimen was taken from each ear, weighed, and the weight differences between the two were compared to determine the amount of inflammation remaining on the right ear.

The subject of another test is wound. Briefly: Wound tensile strength assay (Example 6). The test is classed as in vivo,  mice. The conditions noted are these: 50 mg/kg (each) × 4, subcutaneous, 6 h after day 4 injection. The protocol: While tensile strength of wounds is measured in terms of the load applied per unit of cross section area, the breaking strength is the measure of force required to break a wound of tissue without regard to dimensions. While tensile strength is not a function of the incision length, breaking strength is. The measurements of force required to pull a wound apart differ chiefly in the manner in which the force is applied and the sophistication of the force measurement. In the data recorded herein and in the data collected in the making of the present invention, we used a conventional plastic syringe calibrated to measure […] of air injected into the peritoneal cavity of the mouse. […] Elastic bands are first placed on over the shoulders and hips of the animal to contain the injected air into a defined area of the body and to reduce error involving underlying tissue of the peritoneal cavity, and air is injected into the animal until the wound is disrupted at which time the volume of air is recorded. […]
Each wound was closed with a 9 mm wound clip at 0.25-inch spacings for a total of 3 clips per wound. […] Six hours after the day 4 injection, the tensile strength of wounds was measured by injecting air into the peritoneal cavity from a syringe as described above.

For the next test, the system named is open wounds. Kind of test: Open wound healing assay (Example 5). It is filed as in vivo, ICR mice. The conditions noted are these: daily subcutaneous, Saline control 60.0 ± 8.3. The method, then: Adult male ICR mice (30 g, 15 animals/group) were anesthetized with ether and shaved on both sides of the back. A sterile 6 mm Baker biopsy punch was used to induce a wound on each side of the vertebral column. Anterior-posterior wound diameter measurements were made using a vernier caliper on days 0, 4 and 7. Three treatment groups received daily subcutaneous injections of a gibberellic acid (GA3) solution at dosages of 2, 10 and 100 mg/Kg, respectively. Control mice received daily injections of saline on a 10 ml/Kg basis. Standard errors for each mean value was calculated. The student's "t" test was used to determine significant differences between treatment and control groups. An analysis of variance (ANOVA) was also calculated to determine the statistical significance of the study as a whole, and gave a Fisher ratio at 16.48 which is significant at p<0.001.

As to `CC(=O)Oc1ccccc1C(=O)O` [Aspirin], the “Inhibition (%) of croton oil-induced ear swelling” value in test [1] stood at 23.7 ± 3.1%.
Consider `C=C1C[C@]23C[C@@]1(O)CC[C@H]2[C@@]12C=C[C@H](O)[C@@](C)(C(=O)O1)[C@H]2[C@@H]3C(=O)O` [Gibberellin, gibberellic acid], for which the “increase (%) in wound tensile strength” value in the test on wound worked out at 36.1 ± 1.5%. Further, the entries for the “decrease (%) in wound diameter” value in the test on open wounds (2 mg/kg), with open wounds (10 mg/kg) and in the test with open wounds (100 mg/kg) were 65.3 ± 11.3%, 71.6 ± 12.1% and 81.7 ± 7.0%, respectively.

For the origin of these results see patent US5487899A, “Wound healing” (Jess Clarke & Sons, Inc., priority 1994, dated 1996).
